Reference: patent publication US20210395309A1, “PEPTIDE-DRUG CONJUGATES” (Hong Kong Baptist University, priority 2020, published 2021)
Entries after “also recorded” stand apart in the source; their conditions may differ. Like-named read-outs stand apart in the source and are kept apart here. Where a SMILES comes first, the peptide text is derived from it. The star is where a group is joined. Paclitaxel(2'-O-succinyl) = CC(=O)O[C@H]1C(=O)[C@@]2(C)[C@H]([C@H](OC(=O)c3ccccc3)[C@]3(O)C[C@H](OC(=O)[C@H](OC(=O)CCC(=O)*)[C@@H](NC(=O)c4ccccc4)c4ccccc4)C(C)=C1C3(C)C)[C@]1(OC(C)=O)CO[C@@H]1C[C@@H]2O

What was measured:
[1] = test system: HEK293T (ACE-negative) cells; assay: MTT cytotoxicity assay in ACE-negative HEK293T; assay type: cell-based, human; details: 48 h, mean (95% CI)
Description: (§1) MTT assays were performed to study the in vitro antitumor effects of BPP-PTX conjugate as well as free PTX and BPP in various ACE-negative and ACE-positive cell lines. Briefly, the cells (5,000 per well) were seeded in 96-well plates 24 h before treatment. The different drug formulations at concentrations of 0.01-1000 nM PTX or 0.01-1000 nM BPP-PTX and free BPP were added. The cells were cultured for another 48 h. 20 μL of 3-(4,5-dimethylthiazol-2-yl)-2,5-diphenyltetrazolium bromide (MTT) solution (5 mg/mL) was added. The cells were further cultured for 4 h, the medium was removed, and 150 μL DMSO was added to dissolve the MTT-formazan crystals. The optical density (O.D.) values for the untreated group were set as 100% viability. Independent experiments were performed in triplicate.
(§2) Each experiment was performed at least three times. GraphPad Prism 6.0 software was used for IC50 calculations and statistical analyses, including student t-test and two-way ANOVA.

[2] = test system: MDA-MB-231 (ACE-positive) cells; assay: MTT cytotoxicity assay in ACE-positive TNBC MDA-MB-231; assay type: cell-based, human; details: 48 h, mean (95% CI)
Description: as §1, §2

[3] = test system: MDA-MB-468 (ACE-positive) cells; assay: MTT cytotoxicity assay in ACE-positive TNBC MDA-MB-468; assay type: cell-based, human; details: 48 h, mean (95% CI)
Description: as §1, §2

[4] = for body weight decrease compared with control mice: day 28
Description: Mice were kept at room temperature 25° C. with an alternating 12 h light-dark cycle and were allowed access to food and water. […] MDA-MB-468 cells (5×10^6 cells per mouse) were suspended in PBS and inoculated subcutaneously into the fourth mammary fat pad of athymic nude mice. Tumor growth was monitored every four days by measuring two perpendicular diameters with calipers. […] The tumors were measured with calipers every day, and tumor volumes were calculated using the following formula: a^2×b×0.4, where “a” is the smallest diameter and “b” is the diameter perpendicular to “a”. At the end of the experiment, the mice were sacrificed, and the tumor weights of each animal were analyzed. Blood samples (˜100 μL) were taken from the retro-orbital plexus in heparinized capillary tubes (Modulohm A/S, Herlev, Denmark). Total white blood cell counts were determined manually for each sample using a Neubauer chamber (GMBH, Wertheim, Germany).

[5] = test system: HEK293T-ACE cells; assay: Cytotoxicity in ACE-overexpressed HEK293T-ACE versus control HEK293T; assay type: cell-based, human; details: 1-, 10-, and 100 nM; ACE plasmid vs empty plasmid
Description: (§3) ACE siRNA (h2) (sc-270350) and Control siRNA-A (sc-37007) were purchased from Santa Cruz Biotechnology, Inc. The ACE expression plasmid was bought from Gen Script (Nanjing) Co., Ltd. Transfections were carried out using Lipofectamine 2000 (Invitrogen) according to the manufacturer's instructions.
as §1
(§4) Next, it was determined whether the cytotoxicity of BPP-PTX was mediated by ACE or not. First, the ACE protein was artificially overexpressed in HEK293T cell lines by transfecting ACE-containing plasmid, and the empty plasmid was transfected as a control. […]

[6] = test system: MDA-MB-231-siACE cells; assay: Cytotoxicity in ACE-knockdown MDA-MB-231-siACE versus MDA-MB-231-siCtr; assay type: cell-based, human; details: 10- and 100 nM
Description: as §3, §1, §4

[7] = test system: MDA-MB-468-siACE cells; assay: Cytotoxicity in ACE-knockdown MDA-MB-468-siACE versus MDA-MB-468-siCtr; assay type: cell-based, human; details: 10- and 100 nM
Description: as §3, §1, §4

[8] = test system: MDA-MB-231 cells; assay: Annexin V-FITC/PI apoptosis assay, flow cytometry; assay type: cell-based, human; details: 10 nM, 48 h
Description: (§5) 1×10^5 MDA-MB-231 or 1.5×10^5 MDA-MB-468 cells per well were cultured in 6-well plates. After attachment, cells were treated with DMSO or 10 nM PTX or BPP-PTX for 48 h and stained with Annexin V (AV) conjugated with FITC and propidium iodide (PI) using the Annexin V-FITC Apoptosis Assay Kit following the manufacturer's instructions. Stained cells were analyzed with the Cyflow Cube flow cytometer (PARTEC, Germany). Data were analyzed using FlowJo 7.6.5 software.

[9] = test system: MDA-MB-468 cells; assay: Annexin V-FITC/PI apoptosis assay, flow cytometry; assay type: cell-based, human; details: 10 nM, 48 h
Description: as §5

[10] = test system: MDA-MB-231 and MDA-MB-468 cells; assay: DAPI staining of nuclei for apoptosis; assay type: cell-based, human; details: 10 nM
Description: The occurrence of apoptosis was evaluated by DAPI staining. Cells (4.0×10^5 cells/well) were seeded and incubated with 10 nM PTX or BPP-PTX for 24 h. Following treatment, the cells were washed with phosphate-buffered saline (PBS) and fixed with 4% paraformaldehyde (Sigma-Aldrich) for 15 min at room temperature 25° C., and then stained in the dark with a DAPI solution for 10 min at room temperature 25° C. Thereafter, the cells were washed with PBS and photographed under an inverted fluorescence microscope (Olympus IX71; Olympus, Tokyo, Japan).

[11] = test system: MDA-MB-468 cells; assay: TNBC orthotopic mouse model, tumor growth; assay type: in vivo
Description: To test the in vivo efficacy and toxicity of BPP-PTX, an orthotopic mouse model was established. ACE-positive MDA-MB-468 cells were injected orthotopically in the mammary fat pads of the female athymic nude mouse. Once mice attained palpable tumors, they were randomly divided into four groups and treated for 28 days with PBS, free PTX (2.4 μmol/kg), low dose BPP-PTX (2.4 μmol/kg), and high-dose BPP-PTX (9.6 μmol/kg), every 4 days by intraperitoneal injection (i.p.). Tumor growth was monitored by measuring tumor volume every 4 days with a caliper rule. On day 4, after the first injection, the effect of the drugs was not yet detectable since average tumor volumes, as measured with the caliper, were similar in the four groups of mice. […] On day 28, the average tumor volume of mice treated with low-dose BPP-PTX had decreased by about 15% compared to animals treated with free PTX, and by 54% compared to control animals (PBS). Meanwhile, the average tumor volume of mice treated with high-dose BPP-PTX, had decreased by about 30% compared to animals treated with free PTX, and by 62% compared to control animals (FIGS. 5A and 5B). Consistently, the average tumor weight of mice treated with low-dose BPP-PTX was 0.20 g (0.17, 0.24) lower than that of mice treated with free PTX (0.26 g (0.21, 0.31)) and control mice (0.43 g (0.37, 0.49)).

Compound	IC50 [1]	IC50 [2]	IC50 [3]	WBC count decrease after the 28-day treatment compared to before treatment ([4]; 2.4 μmol/kg i.p. every 4 days)	WBC count decrease after the 28-day treatment compared to before treatment ([4]; 9.6 μmol/kg i.p. every 4 days)	body weight loss compared with control mice ([4]; day 0 to day 24, low dose 2.4 μmol/kg)	body weight decrease compared with control mice ([4]; 2.4 μmol/kg i.p. every 4 days)	body weight decrease compared with control mice ([4]; 9.6 μmol/kg i.p. every 4 days)	IC50 ([1]; Homo sapiens, HEK-293T)	IC50 ([2]; Homo sapiens)	IC50 ([3]; Homo sapiens)	cell variability in HEK293T-ACE compared with HEK293T [5]	cell variability in siACE cells compared with siCtr cells [6]	cell variability in siACE cells compared with siCtr cells [7]	apoptosis [8]	apoptosis [9]	nuclei morphology (DAPI) [10]	average tumor weight ([11]; end of 28-day treatment, 2.4 μmol/kg i.p. every 4 days)	tumor growth compared with control mice ([11]; i.p. every 4 days, 28 days, PTX 2.4 μmol/kg, BPP-PTX 2.4 and 9.6 μmol/kg)
CC[C@H](C)[C@H](NC(=O)[C@H](CCC(N)=O)NC(=O)[C@@H]1CCCN1C(=O)[C@H](CCCNC(=N)N)NC(=O)[C@@H]1CCCN1C(=O)[C@H](Cc1c[nH]c2ccccc12)NC(=O)[C@H](CCC(=O)O)NC(=O)CCC(=O)O[C@@H](C(=O)O[C@H]1C[C@@]2(O)[C@@H](OC(=O)c3ccccc3)[C@@H]3[C@]4(OC(C)=O)CO[C@@H]4C[C@H](O)[C@@]3(C)C(=O)[C@H](OC(C)=O)C(=C1C)C2(C)C)[C@@H](NC(=O)c1ccccc1)c1ccccc1)C(=O)N1CCC[C@H]1C(=O)N1CCC[C@H]1C(N)=O [BPP-PTX] ({Paclitaxel(2'-O-succinyl)}-EWPRPQIPP-NH2)	616 nM	9.5 nM	12.3 nM	about 17%	~22%	no body weight loss	~2.8%	~6.4%	–	–	–	–	–	–	–	–	–	–	–
CC(=O)O[C@H]1C(=O)[C@@]2(C)[C@H]([C@H](OC(=O)c3ccccc3)[C@]3(O)C[C@H](OC(=O)[C@H](O)[C@@H](NC(=O)c4ccccc4)c4ccccc4)C(C)=C1C3(C)C)[C@]1(OC(C)=O)CO[C@@H]1C[C@@H]2O [PTX, Paclitaxel]	–	–	–	about 52%	–	–	about 6.2%	–	6.7 nM	3.1 nM	3 nM	No differences	no difference	no difference	induced apoptosis	induced apoptosis	condensed and fragmented	0.26 g	significantly lower; also recorded: clear reduction
